Results on one sequence are retold here after US20110124842A1 (priority 2003, published 2011).

Like-named read-outs stand apart in the source and are kept apart here.

The experiment has as its system IgG 4E10. The experiment in a line: Competitive ELISA (IC50): peptide competes with biotinylated 4E10-epitope peptide for IgG 4E10. The class given is binding, human. The procedure: IC50, were determined by competitive ELISA using a constant concentration of biotinylated peptide and IgG with a variable concentration of gp41 peptides. Microwells were coated overnight at 4° C. with 50 μl PBS containing neutravidin (Pierce; 4 μg/ml). […] A mixture of a biotinylated 4E10-epitope peptide, […](biotin)-NH2 (SEQ ID NO: 88) (20 nM), IgG 4E10 (0.2 nM), and the competing peptide analog (3-fold dilution series starting at 10 μM) in 0.4% non-fat dry milk, 0.02% Tween and PBS was incubated in a separate 96-well plate at 37° C. for 2 hours. After washing the blocked plate, the mixture of 4E10, biotinylated peptide and competing peptide was added to the wells. After 20 minutes at room temperature, the Wells were washed five times, and a 1:500 dilution of goat anti-human IgG F(ab′)2 HRP conjugate (Pierce) was added. Following incubation at RT for 40 minutes, the wells were washed five times, and developed by adding 50 μl of TMB solution (Pierce) according to the manufacturer's instructions. After ˜20 minutes, wells containing TMB solution were stopped by adding 50 μl of H2SO4 (2M) and the O.D. at 450 nm was read on a microplate reader (Molecular Devices). The concentration of competitor peptide corresponding to a half-maximal signal (IC50) was determined by interpolation of the resulting binding curve. Each peptide competitor was tested in duplicate in at least two separate experiments.
IC50s were determined by competitive ELISA using a constant concentration of biotinylated peptide and IgG with a variable concentration of gp41 peptides. Microwells were coated overnight at 4° C. with 50 μl PBS containing neutravidin (Pierce; 4 μg/ml). […] Meanwhile, a mixture of a biotinylated 4E10-peptide epitope, […](biotin)-NH2 (SEQ ID NO: 88), (20 nM), IgG 4E10 (0.2 nM), and the competing peptide analogue (3-fold dilution series starting at 10 μM) in 0.4% NFDM, 0.02% Tween and PBS was incubated in a separate 96-well plate at 37° C. for 2 h. After washing the blocked plate, the mixture of 4E10, biotinylated peptide and competing peptide was added to the wells. After 20 min at room temperature, the wells were washed five times, and a 1:500 dilution of goat anti-human IgG F(ab′)2 HRP conjugate (Pierce) was added. Following incubation at RT for 40 min, the wells were washed five times, and developed by adding 50 μl of H2SO4 (2 M), and the O.D. at 450 nm was read on a microplate reader (Molecular Devices). The concentration of competitor peptide corresponding to a half-maximal signal (IC50) was determined by interpolation of the resulting binding curve. Each peptide competitor was tested in duplicate in at least two separate experiments.

Regarding “NWFDITNWLWYIKKKK [Peptide 94-1, NWFDITNWLWYIKKKK-NH2]”, the “improvement in 4E10 binding (IC50) over the starting peptide NWFDITNWLWKKKK-NH2” value came to 4 fold and the “improvement in IC50 compared to KGND” value was “over 1000 fold”. Further, where the note is “Table 5, unconstrained peptide analogs, 4E10 binding, read-out: IC50”, the IC50 (commonly the concentration at which inhibition is half-maximal) was found to be 10 nM. Further, the IC50 (Table 7, 4E10 peptide epitopes, read-out: IC50) came out at 10 nM. For the setting “as determined by surface plasmon resonance and ELISA”, the “higher affinity of 4E10 than to the original peptide KGND” value is reported as “approximately 10^3 fold”. Moreover, where the note is “read-out: IC50 (4E10 binding, competitive ELISA)”, the IC50 came out at 10 nM.
